Marks after values point to notes of the source that are not given here.
How the values were obtained:
[1] = molecular target: clade 2 H5N1 neuraminidase; settings: cited from earlier work
[2] = tested on: H5N1 clade 2 A/Chicken/Bangli/BBVD-563/2007 neuraminidase; settings: 37°C
[3] = tested on: A/Mississippi/03/01 H1N1 wild type neuraminidase
[4] = tested on: H5N1 clade 1 A/Chicken/Vietnam/08/2004 neuraminidase; settings: 37°C
[5] = tested on: H3N2 wild type neuraminidase; settings: cited from earlier work
[6] = molecular target: clade 1 H5N1 neuraminidase; settings: cited from earlier work
[7] = molecular target: B/Perth/211/01 wild type neuraminidase; settings: cited from earlier work
[8] = tested on: wild type viruses (neuraminidase)
[9] = tested on: B/Perth/211/01 influenza B wild type neuraminidase
[10] = tested on: human influenza A strains (neuraminidase)
[11] = tested on: A/Fukui/45/04 H3N2 wild type neuraminidase

Row | Compound | IC50 [1] | increase in IC50 from 10 to 60 min after addition of substrate in the preincubation reaction [1] | Time (T½) for reaction rates to reach half the maximum rate of the uninhibited control [2] | Time (T½) for reaction rates to reach half the maximum rate of the uninhibited control [3] | Time (T½) for reaction rates to reach half the maximum rate of the uninhibited control [4] | changes in IC50 from 10 to 60 min in the preincubation reaction [5] | IC50 [6] | increase in IC50 from 10 to 60 min after addition of substrate in the preincubation reaction [6] | IC50 [7] | T½ (range over viruses) [8] | Time (T½) for reaction rates to reach half the maximum rate of the uninhibited control [9] | T½ values [10] | Time (T½) for reaction rates to reach half the maximum rate of the uninhibited control [11]
1 | CC(=O)N[C@H]1[C@H]([C@H](O)[C@H](O)CO)OC(C(=O)O)=C[C@@H]1N=C(N)N [Zanamivir] | 1.3 nM | 2.2 fold | 72.8^* min | 41.3 min | 27.7^* min | 1.3 fold | 2.1 nM | 4.5 fold | 8.9 nM | 0.467 to 1.82 h | 24.6^* min | – | –
2 | CCC(CC)[C@H](NC(C)=O)[C@@H]1[C@H](O)[C@@H](C(=O)O)C[C@H]1N=C(N)N [Peramivir, peramivir] | – | – | 84.4 min | >240^* min | 59.9 min | – | – | – | 2.8 nM | – | – | > 4 h | >4 h
